# Laboratory results from patent US10238631B2, “Sesquiterpene derivatives and their use in inflammation or cancer treatment” (Academia Sinica, priority 2014, dated 2019).
# Read-outs that look alike come from different tables or passages of the source.
# Tests used:
# [1] = system: TS/A (ER+, Her2−) murine mammary cancer cells; assay: MTT cell viability assay, TS/A cells; type: cell-based; conditions: Mus musculus, 24 h, read-out: IC50 on cell viability, TS/A (ER+, Her2−)
# Description: (§1) Normal or cancer cells (2×10^3 to 1×10^4 cells/well) were seeded in 96-well plate for overnight and treated with different compounds for 24 h to 72 h. Cells growth were determined by MTT-based colorimetric assays according to. Viability of the test cells treated with vehicle (0.5% DMSO) only was defined as 100% viable. Survival of cells after treatment with DETDs was calculated using the following formula: viable cell number (%)=OD570 (treated cell culture)/OD570 (vehicle control)×100.
# (§2) Sixty DETDs were derived from parental compound […] and tested for anti-breast cancer cell activity.
# [2] = system: MDA-MB-231 (ER−, PR−, Her2−) human breast cancer cells; assay: MTT cell viability assay, MDA-MB-231 cells; type: cell-based; conditions: Homo sapiens, MDA-MB-231, 24 h, read-out: IC50 on cell viability, MDA-MB-231 (ER−, PR−, Her2−)
# Description: as §1, §2
# [3] = system: MCF-7 (ER+, Her2−) human breast cancer cells; assay: MTT cell viability assay, MCF-7 cells; type: cell-based; conditions: MCF7, 24 h, read-out: IC50 on cell viability, MCF-7 (ER+, Her2−)
# Description: as §1, §2
# [4] = system: M10 normal mammary epithelial cells; assay: MTT cell viability assay, M10 normal cells; type: cell-based, human; conditions: Homo sapiens, Epithelial cell, 24 h
# Description: as §1, §2
# B16-F10 (NRAS mutation) = assay: MTT cell viability assay, B16-F10 melanoma; type: cell-based; conditions: Mus musculus, B16-F10, 24 h, read-out: IC50 on cell viability, B16-F10 (NRAS mutation)
# Description: as §1
# (§3) Several genes are involved in melanoma development and pathology; specifically, mutation in V-raf murine sarcoma viral oncogene homolog B1 (B-RAF) occurs approximately 50-60% and in neuroblastoma RAS viral oncogene homolog (N-RAS) occurs about 30% of malignant melanomas. A spectrum of wild-type or mutated melanoma cell lines including B16-F10, MeWo, A375, A2058, HTB-68, and melanocyte were used to study anti-melanoma cell proliferation activity of parental phytocompound DET and newly synthesized DETDs.
# [5] = system: MeWo (No NRAS or BRAF mutation); assay: MTT cell viability assay, MeWo melanoma; type: cell-based, human; conditions: Homo sapiens, MeWo, 24 h
# Description: as §1, §3
# HTB-68 (NRAS mutation) = assay: MTT cell viability assay, HTB-68 melanoma; type: cell-based, human; conditions: Homo sapiens, 24 h
# Description: as §1, §3
# A2058 (BRAF mutation) = assay: MTT cell viability assay, A2058 melanoma; type: cell-based, human; conditions: Homo sapiens, A2058, 24 h
# Description: as §1, §3
# A375 (BRAF mutation) = assay: MTT cell viability assay, A375 melanoma; type: cell-based, human; conditions: Homo sapiens, A-375, 24 h, read-out: IC50 on cell viability, A375 (BRAF mutation)
# Description: as §1, §3
# To investigate whether or not DETD-35 show synergism with PLX4032 against A375 melanoma cells, we performed anti-proliferation assay using MTT reagent to obtain IC50 of each compound. […] The synergistic effect was quantified by combination index (CI) analysis as stated above.
# [6] = system: Melanocyte (Normal cells); assay: MTT cell viability assay, normal melanocytes; type: cell-based, human; conditions: Homo sapiens, Melanocyte, 24 h
# Description: as §1, §3
# [7] = system: RAW264.7 (normal macrophage); assay: MTT cell viability assay, RAW264.7 macrophages; type: cell-based, mouse; conditions: Mus musculus, RAW264.7, 24 h
# Description: as §1
# (§4) Marcophages (2×10^5 cells/well in 96-well plate) were treated with compounds for 1 h, then incubated further for 24 h with or without the presence of […] LPS in the cultural medium. Nitrite levels in cell culture medium were determined by the Griess reaction method. In parallel to the Griess assays, macrophage cell viabilities were determined using the MTT based colorimetric assay.
# [8] = system: LPS-induced nitric oxide (NO) production in RAW 264.7 cells; assay: Nitric oxide production in LPS-stimulated macrophages (Griess); type: cell-based, mouse; conditions: Mus musculus; LPS-stimulated RAW264.7, nitrite 24 h after LPS
# Description: as §4
# LPS from the outer membrane of Gram-negative bacteria can induce mRNA or protein levels of inducible nitric oxide synthase (iNOS), which catalyzes oxidative deamination of L-arginine to produce nitric oxide (NO). Once NO is predominantly produced, it interacts with superoxide anion and generates highly reactive oxidants resulting in cellular inflammation, DNA, protein and tissue damages, carcinogenesis, and antiapoptosis. We used in vitro LPS stimulated inflammation in RAW264.7 cell system to evaluate the effect of DET and its derivatives DETDs on NO production by determination of nitrite level (equivalent to NO level) in culture medium 24 h after LPS treatment.
SMILES,IC50 [1] [µM],IC50 [2] [µM],IC50 [3] [µM],IC50 (B16-F10 (NRAS mutation); 24 h) [µM],IC50 [5] [µM],IC50 (HTB-68 (NRAS mutation)) [µM],IC50 (A2058 (BRAF mutation)) [µM],"IC50 (A375 (BRAF mutation); 24 h, MTT) [µM]",IC50 [8] [µM],IC50 [4] [µM],IC50 [6] [µM],IC50 [7] [µM],IC50 (B16-F10 (NRAS mutation)) [µM],IC50 (A375 (BRAF mutation)) [µM]
C=C1C(=O)OC2CC3=C[C@@H](C/C(C)=C/[C@H](OC(=O)Cc4cccc5ccccc45)[C@H]12)OC3=O (some centres unmarked) [DETD-62],> 7.5,7.4,> 7.5,9.3,> 10,9,8.7,5,> 10,> 7.5,> 10,> 10,,
C=C1C(=O)OC2CC3=C[C@@H](C/C(C)=C/C(OC(C)=O)[C@H]12)OC3=O (some centres unmarked) [DETD-17],3.5,> 7.5,6.7,,> 10,> 10,> 10,,2,> 7.5,> 10,> 10,> 10,> 10
C=C1C(=O)OC2CC3=C[C@@H](C/C(C)=C/C(OC(=O)C(C)CCC)[C@H]12)OC3=O (some centres unmarked) [DETD-20],2.2,5.8,3.5,9,> 10,> 10,> 10,> 10,4.2,> 7.5,> 10,> 10,,
C=C1C(=O)OC2CC3=C[C@@H](C/C(C)=C/[C@@H](OC(=O)[C@H](OC)c4ccc5ccccc5c4)[C@H]12)OC3=O (some centres unmarked) [DETD-57],> 7.5,> 15,> 7.5,8.1,> 10,8,8.3,4.2,> 10,> 7.5,> 10,> 10,,
C=C1C(=O)OC2CC3=C[C@@H](C/C(C)=C/C(OC(=O)/C=C/CC)[C@H]12)OC3=O (some centres unmarked) [DETD-25],4,> 7.5,5.8,> 10,> 10,> 10,> 10,> 10,4.9,> 7.5,> 10,> 10,,
C=C1C(=O)OC2CC3=C[C@@H](C/C(C)=C/C(OC(=O)/C=C/c4cccs4)[C@H]12)OC3=O (some centres unmarked) [DETD-42],2.7,6,4.5,,> 10,> 10,> 10,,2.9,> 7.5,> 10,> 10,5.5,> 10
C=C1C(=O)OC2CC3=C[C@@H](C/C(C)=C/C(OC(=O)C4CCCCC4)[C@H]12)OC3=O (some centres unmarked) [DETD-38],2.6,5.2,4.6,3.9,> 10,9.5,,5.1,1.7,> 7.5,> 10,> 10,,

# More lines, in order of falling IC50 [1], values ahead:
IC50 [1] [µM],IC50 [2] [µM],IC50 [3] [µM],IC50 (B16-F10 (NRAS mutation); 24 h) [µM],IC50 [5] [µM],IC50 (HTB-68 (NRAS mutation)) [µM],IC50 (A2058 (BRAF mutation)) [µM],"IC50 (A375 (BRAF mutation); 24 h, MTT) [µM]",IC50 [8] [µM],SMILES,IC50 [4] [µM],IC50 [6] [µM],IC50 [7] [µM],IC50 (B16-F10 (NRAS mutation)) [µM],IC50 (A375 (BRAF mutation)) [µM]
4,> 7.5,4.5,> 10,> 10,> 10,> 10,> 10,4.7,C=C1C(=O)OC2CC3=C[C@@H](C/C(C)=C/C(OC(=O)C(CC)CCCC)[C@H]12)OC3=O (some centres unmarked) [DETD-21],> 7.5,> 10,> 10,,
3,6.7,6.2,3.8,> 10,> 10,> 10,> 10,2,C=C1C(=O)OC2CC3=C[C@@H](C/C(C)=C/C(OC(=O)C4CCCC4)[C@H]12)OC3=O (some centres unmarked) [DETD-37],> 7.5,> 10,> 10,,
2.4,8.7,7.1,9.4,> 10,> 10,> 10,9.2,1.8,C=C1C(=O)OC2CC3=C[C@@H](C/C(C)=C/C(OC(=O)C4CC4)[C@H]12)OC3=O (some centres unmarked) [DETD-36],> 7.5,> 10,> 10,,
